# According to patent US10259815B2, “Gabaergic ligands and their uses” (UWM Research Foundation, Inc., priority 2015, dated 2019):
# Test system: Male NIH Swiss mice
# Experiment: Forced swim test
# Format: in vivo
# Conditions: 10 and 30 mg/kg i.p.
# Description: FIG. 16 is a graph of immobility illustrating the antidepressant effects of KRM-II-81 assessed in the forced swim test. Male NIH Swiss mice (n=7-8) were dosed i.p. with vehicle (1% HEC, 0.25% Tween 80, 0.05% antifoam), KRM-II-81 (3, 10, or 30 mg/kg), or imipramine (15 mg/kg) and assessed in the forced swim test. Results were analyzed using ANOVA (Dunnett's test *P<0.05).
# The forced swim test is used as a primary screen for the antidepressant nature of a test compound. Mice are placed in a cylinder filled with a small amount of water. Mice that are more mobile after a dosing of a compound are determined to be less depressed.
# The experiment was carried out as described by Porsolt et al. (Arch. Int. Pharmacodyn. Ther. 1977, 229, 327-366). Male NIH Swiss mice (n=7-8) were dosed i.p. with vehicle (1% HEC, 0.25% Tween 80, 0.05% antifoam), KRM-II-81 (3, 10, or 30 mg/kg), or imipramine (15 mg/kg) and assessed in the forced swim test. Mice were placed individually in clear plastic cylinders (10 cm in diameter×25 cm in height) filled to 6 cm with 22-25° C. water for 6 minutes. The duration of immobility was recorded during the last 4 minutes of a 6-minute trial. A mouse was regarded as immobile when floating motionless or making only those movements necessary to keep its head above the water.
compound,measurement,value
"C#Cc1ccc2c(c1)C(c1ccccn1)=NCc1c(-c3cnco3)ncn1-2 [KRM-II-81, 5-(8-Ethynyl-6-(pyridin-2-yl)-4H-benzo[f]imidazo[1,5-a][1,4]diazepin-3-yl)oxazole]",antidepressant effects (immobility),demonstrated antidepressant effects
